Experimental data published in patent US11427548B2 (Arvinas Operations, Inc., priority 2015, dated 2022).

Target: T1, Androgen Receptor (Homo sapiens, UniProt P10275)
T1 construct: endogenous in cells; host or cells: VCaP cells
T1 sequence (P10275 1-920): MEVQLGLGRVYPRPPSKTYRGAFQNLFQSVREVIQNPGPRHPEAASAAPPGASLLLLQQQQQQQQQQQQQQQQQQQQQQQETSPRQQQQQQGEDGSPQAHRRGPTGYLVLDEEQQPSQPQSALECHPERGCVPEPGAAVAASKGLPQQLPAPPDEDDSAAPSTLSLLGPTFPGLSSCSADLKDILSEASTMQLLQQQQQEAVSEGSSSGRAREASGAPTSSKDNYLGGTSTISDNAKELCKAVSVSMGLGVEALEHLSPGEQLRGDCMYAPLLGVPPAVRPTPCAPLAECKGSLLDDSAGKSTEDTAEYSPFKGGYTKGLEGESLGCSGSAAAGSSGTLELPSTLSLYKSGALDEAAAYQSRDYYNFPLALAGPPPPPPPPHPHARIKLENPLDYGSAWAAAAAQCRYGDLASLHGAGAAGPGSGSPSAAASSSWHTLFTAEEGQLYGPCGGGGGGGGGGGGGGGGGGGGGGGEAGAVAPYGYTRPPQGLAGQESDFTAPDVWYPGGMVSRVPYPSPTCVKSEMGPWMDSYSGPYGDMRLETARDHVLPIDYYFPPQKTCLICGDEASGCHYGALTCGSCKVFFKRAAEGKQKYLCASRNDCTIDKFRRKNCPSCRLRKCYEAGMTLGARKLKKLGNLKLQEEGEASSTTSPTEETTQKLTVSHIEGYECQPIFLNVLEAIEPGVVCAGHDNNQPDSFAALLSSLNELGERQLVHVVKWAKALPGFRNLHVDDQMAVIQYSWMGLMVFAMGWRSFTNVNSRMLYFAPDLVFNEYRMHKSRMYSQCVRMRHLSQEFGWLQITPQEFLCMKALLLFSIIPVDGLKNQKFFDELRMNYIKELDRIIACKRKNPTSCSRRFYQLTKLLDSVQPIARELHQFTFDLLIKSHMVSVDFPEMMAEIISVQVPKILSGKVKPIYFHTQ
Test: Androgen Receptor ELISA assay (PathScan AR ELISA) in VCaP cells: AR degradation, Dmax and DC50
Format: cell-based
Conditions: VCaP cells, Table 36; for DC50: read-out: VCaP DC50; for Dmax: VCaP, read-out: VCaP Dmax (%)
Procedure, shortened: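 After 24 h exposure of VCaP cells (charcoal-stripped serum, 0.1 nM R1881 agonist, 0.1% DMSO) to seven half-log compound concentrations, residual AR in lysates was measured by PathScan ELISA (TMB absorbance, 450 nm). Cells were plated at 30,000/well and grown at least 3 days beforehand.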

DC50 [nM] | Dmax [%] | SMILES | VCaP Dmax (%)
> 501 | < 25 | Cc1ncsc1-c1ccc([C@H](C)NC(=O)[C@@H]2C[C@@H](O)CN2C(=O)[C@@H](NC(=O)CCCCN2CCN(c3ccc(C(=O)N[C@H]4C(C)(C)[C@H](Oc5ccc(C#N)c(Cl)c5)C4(C)C)cn3)CC2)C(C)(C)C)cc1 [Example 779, N-((1r,3r)-3-(3-chloro-4-cyanophenoxy)-2,2,4,4-tetramethylcyclobutyl)-6-(4-(5-(((S)-1-((2S,4R)-4-hydroxy-2-(((S)-1-(4-(4-methylthiazol-5-yl)phenyl)ethyl)carbamoyl)pyrrolidin-1-yl)-3,3-dimethyl-1-oxobutan-2-yl)amino)-5-oxopentyl)piperazin-1-yl)nicotinamide] | 
< 50 | 26 to 50 | Cc1ncsc1-c1ccc([C@H](CO)NC(=O)[C@@H]2C[C@@H](O)CN2C(=O)[C@@H](NC(=O)CCCCN2CCN(c3ccc(C(=O)N[C@H]4C(C)(C)[C@H](Oc5ccc(C#N)c(Cl)c5)C4(C)C)cn3)CC2)C(C)(C)C)cc1 [Example 780, N-((1r,3r)-3-(3-chloro-4-cyanophenoxy)-2,2,4,4-tetramethylcyclobutyl)-6-(4-(5-(((S)-1-((2S,4R)-4-hydroxy-2-(((R)-2-hydroxy-1-(4-(4-methylthiazol-5-yl)phenyl)ethyl)carbamoyl)pyrrolidin-1-yl)-3,3-dimethyl-1-oxobutan-2-yl)amino)-5-oxopentyl)piperazin-1-yl)nicotinamide] | 
> 501 | 26 to 50 | Cc1ncsc1-c1ccc(C(CO)NC(=O)[C@@H]2C[C@@H](O)CN2C(=O)[C@@H](NC(=O)CCCN2CCN(c3ccc(C(=O)N[C@H]4C(C)(C)[C@H](Oc5ccc(C#N)c(Cl)c5)C4(C)C)cn3)CC2)C(C)(C)C)cc1 (stereo partly drawn) [Example 781, N-((1r,3r)-3-(3-chloro-4-cyanophenoxy)-2,2,4,4-tetramethylcyclobutyl)-6-(4-(4-(((S)-1-((2S,4R)-4-hydroxy-2-(((R)-2-hydroxy-1-(4-(4-methylthiazol-5-yl)phenyl)ethyl)carbamoyl)pyrrolidin-1-yl)-3,3-dimethyl-1-oxobutan-2-yl)amino)-4-oxobutyl)piperazin-1-yl)nicotinamide] | 
< 50 | > 71 | Cc1ncsc1-c1ccc([C@H](C)NC(=O)C2C[C@@H](O)CN2C(=O)[C@@H](NC(=O)COCCN2CCCN(c3ccc(C(=O)N[C@H]4C(C)(C)[C@H](Oc5ccc(C#N)c(Cl)c5)C4(C)C)cn3)CC2)C(C)(C)C)cc1 (stereo partly drawn) [Example 782, N-((1r,3r)-3-(3-chloro-4-cyanophenoxy)-2,2,4,4-tetramethylcyclobutyl)-6-(4-(2-(2-(((S)-1-((2S,4R)-4-hydroxy-2-(((S)-1-(4-(4-methylthiazol-5-yl)phenyl)ethyl)carbamoyl)pyrrolidin-1-yl)-3,3-dimethyl-1-oxobutan-2-yl)amino)-2-oxoethoxy)ethyl)-1,4-diazepan-1-yl)nicotinamide] | 
< 50 | > 71 | Cc1ncsc1-c1ccc([C@H](C)NC(=O)[C@@H]2C[C@@H](O)CN2C(=O)[C@@H](NC(=O)CN2CCN(CCCc3ccc(C(=O)N[C@H]4C(C)(C)[C@H](Oc5ccc(C#N)c(Cl)c5)C4(C)C)cc3)CC2)C(C)(C)C)cc1 [Example 783, (2S,4R)-1-((S)-2-(2-(4-(3-(4-(((1r,3r)-3-(3-chloro-4-cyanophenoxy)-2,2,4,4-tetramethylcyclobutyl)carbamoyl)phenyl)propyl)piperazin-1-yl)acetamido)-3,3-dimethylbutanoyl)-4-hydroxy-N-((S)-1-(4-(4-methylthiazol-5-yl)phenyl)ethyl)pyrrolidine-2-carboxamide] | 
> 501 | < 25 | COc1cc(C#N)ccc1[C@H](C)NC(=O)[C@@H]1C[C@@H](O)CN1C(=O)[C@@H](NC(=O)CCCCN1CCN(c2ccc(C(=O)N[C@H]3C(C)(C)[C@H](Oc4ccc(C#N)c(Cl)c4)C3(C)C)cn2)CC1)C(C)(C)C [Example 784, N-((1r,3r)-3-(3-chloro-4-cyanophenoxy)-2,2,4,4-tetramethylcyclobutyl)-6-(4-(5-(((S)-1-((2S,4R)-2-(((S)-1-(4-cyano-2-methoxyphenyl)ethyl)carbamoyl)-4-hydroxypyrrolidin-1-yl)-3,3-dimethyl-1-oxobutan-2-yl)amino)-5-oxopentyl)piperazin-1-yl)nicotinamide] | 
< 50 | 51 to 70 | COc1cc(C#N)ccc1[C@H](C)NC(=O)[C@@H]1C[C@@H](O)CN1C(=O)[C@@H](NC(=O)COCCN1CCN(c2ccc(C(=O)N[C@H]3C(C)(C)[C@H](Oc4ccc(C#N)c(Cl)c4)C3(C)C)cn2)CC1)C(C)(C)C [Example 785, N-((1r,3r)-3-(3-chloro-4-cyanophenoxy)-2,2,4,4-tetramethylcyclobutyl)-6-(4-(2-(2-(((S)-1-((2S,4R)-2-(((S)-1-(4-cyano-2-methoxyphenyl)ethyl)carbamoyl)-4-hydroxypyrrolidin-1-yl)-3,3-dimethyl-1-oxobutan-2-yl)amino)-2-oxoethoxy)ethyl)piperazin-1-yl)nicotinamide] | 
< 50 | > 71 | Cc1ncsc1-c1ccc([C@H](C)NC(=O)C2C[C@@H](O)CN2C(=O)[C@@H](NC(=O)COCCN2[C@H](C)CN(c3ccc(C(=O)N[C@H]4C(C)(C)[C@H](Oc5ccc(C#N)c(Cl)c5)C4(C)C)cn3)C[C@@H]2C)C(C)(C)C)cc1 (stereo partly drawn) [Example 786, N-((1r,3R)-3-(3-chloro-4-cyanophenoxy)-2,2,4,4-tetramethylcyclobutyl)-6-((3S,5R)-4-(2-(2-(((2S)-1-((4R)-4-hydroxy-2-(((S)-1-(4-(4-methylthiazol-5-yl)phenyl)ethyl)carbamoyl)pyrrolidin-1-yl)-3,3-dimethyl-1-oxobutan-2-yl)amino)-2-oxoethoxy)ethyl)-3,5-dimethylpiperazin-1-yl)nicotinamide] | 
< 50 | > 71 | Cc1ncsc1-c1ccc([C@H](C)NC(=O)C2C[C@@H](O)CN2C(=O)[C@@H](NC(=O)COCCN2CCN(c3ccc(C(=O)N[C@H]4C(C)(C)[C@H](Oc5ccc(C#N)c(Cl)c5)C4(C)C)cn3)C[C@H]2CO)C(C)(C)C)cc1 (stereo partly drawn) [Example 788, N-((1r,3S)-3-(3-chloro-4-cyanophenoxy)-2,2,4,4-tetramethylcyclobutyl)-6-((3S)-4-(2-(2-(((2S)-1-((4R)-4-hydroxy-2-(((S)-1-(4-(4-methylthiazol-5-yl)phenyl)ethyl)carbamoyl)pyrrolidin-1-yl)-3,3-dimethyl-1-oxobutan-2-yl)amino)-2-oxoethoxy)ethyl)-3-(hydroxymethyl)piperazin-1-yl)nicotinamide] | 

SMILES | DC50 [nM] | Dmax [%] | VCaP Dmax (%)
Cc1ncsc1-c1ccc([C@H](C)NC(=O)C2C[C@@H](O)CN2C(=O)[C@@H](NC(=O)COCCN2C3CCC2CN(c2ccc(C(=O)NC4C(C)(C)C(Oc5ccc(C#N)c(Cl)c5)C4(C)C)cn2)C3)C(C)(C)C)cc1 (stereo partly drawn) [Example 787, N-((1r,3r)-3-(3-chloro-4-cyanophenoxy)-2,2,4,4-tetramethylcyclobutyl)-6-(8-(2-(2-(((2S)-1-((4R)-4-hydroxy-2-(((S)-1-(4-(4-methylthiazol-5-yl)phenyl)ethyl)carbamoyl)pyrrolidin-1-yl)-3,3-dimethyl-1-oxobutan-2-yl)amino)-2-oxoethoxy)ethyl)-3,8-diazabicyclo[3.2.1]octan-3-yl)nicotinamide] | < 50 |  | ++++ (71% ≤ Dmax)
